Assay [1] relates to SU-DHL-5 (B-Cell Non-Hodgkin's Lymphoma). The assay can be described thus: Bliss excess, mean over the matrix (fraction); higher = more synergy. In short, it runs like this:
(§1)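 Bliss excess equals the observed combination effect minus the expected value EA + EB − EA·EB, where EA and EB are the effects of each agent alone. Combination Emax is the second-highest inhibition within the matrix. Inhibition was scaled from CellTiter-Glo 2.0 luminescence, with 0 set by vehicle wells and 1 by blank wells, after 72 hours of two-drug dosing of cells plated in 1536-well plates.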

The subject of assay [2] is H9 (T-Cell Non-Hodgkin's Lymphoma). Described as above. In short, it runs like this:
as §1

Assay [3] deals with JHH-4 (Hepatocellular Carcinoma). Described as above. In short, it runs like this:
as §1

Assay [4] has as its system RD (Rhabdomyosarcoma). The assay is described as above. In outline: as §1
Assay [5] deals with CHSA8926 (Chondrosarcoma). The description is as above. In outline:
as §1

In assay [6] the test system is IM-95 (Gastric Carcinoma). The description is as above. In outline: as §1
Assay [7] deals with KY821 (Acute Myeloid Leukemia). The assay is described as above. In short, it runs like this: as §1
For assay [8], the system named is NCI-H661 (Non-Small Cell Lung Carcinoma). The description is as above. In outline: as §1
Assay [9] concerns HCC1187 (Breast Carcinoma). The description is as above. In outline:
as §1

In assay [10] the test system is PC-3 (Prostate Carcinoma). The description is as above. In outline:
as §1

The subject of assay [11] is PC-3 (Prostate Carcinoma). Nature of the assay: combination Emax (second highest fraction inhibited in the dose matrix, 72 h); higher = more inhibition; extreme values may be limits of the assay. In short, it runs like this:
as §1

In assay [12] the test system is MOG-G-CCM (Low Grade Glioma). The assay can be described thus: Bliss excess, mean over the matrix (fraction); higher = more synergy. In outline:
as §1

Assay [13] concerns NCI-H520 (Squamous Cell Lung Carcinoma). The description is as above. In short, it runs like this:
as §1

For assay [14], the system named is NCI-H3122 (Lung Adenocarcinoma). Described as above. In short, it runs like this: as §1
Assay [15] relates to NCI-H929 (Plasma Cell Myeloma). The assay is described as above. In outline:
as §1

Assay [16] concerns SJSA-1 (Osteosarcoma). The description is as above. In short, it runs like this:
as §1

The subject of assay [17] is SK-GT-4 (Esophageal Adenocarcinoma). Described as above. In short, it runs like this:
as §1

Assay [18] has as its system KU812 (Chronic Myelogenous Leukemia). The assay is described as above. In short, it runs like this: as §1
For assay [19], the system named is NCI-H2731 (Mesothelioma). The assay is described as above. In outline:
as §1

The subject of assay [20] is T-T (Esophageal Squamous Cell Carcinoma). The description is as above. In outline:
as §1

Consider `COc1nnc2ccc(N3CCC(c4ccc(OCCN5CCN(C)C(=O)[C@H]5C)cc4)CC3)nn12` [AZD5153] + CN(CC[C@H](CSC1=CC=CC=C1)NC2=C(C=C(C=C2)S(=O)(=O)NC(=O)C3=CC=C(C=C3)N4CCC(CC4)[C@H](C5=CC=CC=C5C6=CC=C(C=C6)Cl)O)S(=O)(=O)C(F)(F)F)CCO [AZD4320] (first compound max 1 µM, 7x7, partner max 1 µM), for which the Bliss excess is -0.0155 in [1]; -0.0291 in assay [2]; 0.0556 in [3]; 0.0526 in [4]; -0.0781 in assay [5]; -0.0568 in assay [6]. In addition, the Bliss excess in assay [7] turned out to be 0.0111; in assay [8] it was 0.0102; in [9], 0.0165; in assay [10] it was 0.0691. Moreover, in [11], the “combination Emax” value turned out to be 0.347.

`Cc1c2c(nn1C)CSCc1cc(n(C)n1)CSc1cc(c3ccccc3c1)OCCCc1c(C(=O)O)n(C)c3c-2c(Cl)ccc13` [AZD5991] + Cc1cc2ncnn2cc1Nc1ncc2c(n1)n(C1CCOCC1)c(=O)n2C [AZD7648] (first compound max 1 µM, 7x7, partner max 10 µM): the Bliss excess in assay [12] was -0.0394; in [1], -0.0377; in assay [13] it was -0.0453; in assay [14] it was -0.0563; in [3] it was -0.0217; in assay [4] it was -0.049. In addition, the Bliss excess is -0.0376 in assay [5]; -0.0615 in assay [6]; -0.0302 in [7]; -0.0546 in assay [8]; 0.0091 in assay [15]; 0.0585 in assay [16]. For the same compound, the Bliss excess in assay [17] was -0.0651; in assay [9], -0.0299; in [18], -0.0046; in [19], -0.0637; in [10] it was -0.135; in [20] it was 0.007. In addition, the “combination Emax” value in assay [11] amounted to 0.305.

Regarding `CS(=O)(=O)CCNCc1ccc(-c2ccc3ncnc(Nc4ccc(OCc5cccc(F)c5)c(Cl)c4)c3c2)o1` [Lapatinib] + NC1(c2ccc(-c3nc4ccn5c(=O)[nH]nc5c4cc3-c3ccccc3)cc2)CCC1 [MK-2206] (first compound max 10 µM, 7x7, partner max 10 µM), the Bliss excess in assay [12] is -0.0681; in [13], 0.0011; in assay [14], -0.0497; in [2], -0.247; in assay [6], 0.0488; in [7] it was 0.0724. Further, the Bliss excess was -0.0278 in assay [15]; -0.0402 in assay [16]; 0.0402 in assay [17]; -0.0194 in assay [18]; 0.0201 in [19]; -0.0168 in [20].

Consider `Cc1c2c(nn1C)CSCc1cc(n(C)n1)CSc1cc(c3ccccc3c1)OCCCc1c(C(=O)O)n(C)c3c-2c(Cl)ccc13` [AZD5991] + CN(C)CCCOc1ccc(-c2ccc3ncc4c(c3c2)n(C2CCOCC2)c(=O)n4C)cn1 [AZD0156] (first compound max 1 µM, 7x7, partner max 1 µM), for which the Bliss excess is -0.0067 in assay [12]; -0.0041 in assay [1]; -0.0011 in assay [13]; 0.0187 in [14]; 0.0314 in [2]; -0.0063 in assay [3]. For the same compound, the Bliss excess in assay [4] was 0.0095; in [5] it was 0.0117; in [6], -0.0198; in assay [7], -0.0327; in assay [8], -0.0054; in assay [15], -0.0121. Also, the Bliss excess in assay [16] was 0.0256; in [17], -0.031; in assay [9], -0.0266; in assay [18], -0.0788; in assay [19], -0.0444; in assay [20], -0.0025. The “combination Emax” value in assay [11] turned out to be 0.282.

As to `CC(=O)Nc1cccc(-n2c(=O)n(C3CC3)c(=O)c3c(Nc4ccc(I)cc4F)n(C)c(=O)c(C)c32)c1` [Trametinib] + Cc1nc(-c2cn3c(n2)-c2ccc(-c4cnn(C(C)(C)C(N)=O)c4)cc2OCC3)n(C(C)C)n1 [Taselisib] (first compound max 1 µM, 7x7, partner max 10 µM), the Bliss excess in assay [12] was found to be 0.0182; in [1] it was 0.0452; in [13], 0.0256; in assay [14] it was 0.116; in assay [2], 0.0402; in [3], 0.0462. Besides, the Bliss excess in assay [4] was 0.261; in assay [6], 0.196; in assay [7], -0.0601; in assay [8], 0.115; in assay [15] it was 0.0401; in assay [16] it was 0.0501. In addition, the Bliss excess is 0.103 in assay [17]; 0.0462 in [9]; 0.111 in [18]; 0.0312 in [19]; -0.0138 in assay [10]; 0.245 in assay [20]. Also, the “combination Emax” value in assay [11] was found to be 0.503.

With `C[C@@H](c1ccc2nccn2c1)n1nnc2ncc(-c3cnn(C)c3)nc21` [Savolitinib] + CN(CC[C@H](CSC1=CC=CC=C1)NC2=C(C=C(C=C2)S(=O)(=O)NC(=O)C3=CC=C(C=C3)N4CCC(CC4)[C@H](C5=CC=CC=C5C6=CC=C(C=C6)Cl)O)S(=O)(=O)C(F)(F)F)CCO [AZD4320] (first compound max 1 µM, 7x7, partner max 1 µM), the Bliss excess in assay [1] was -0.0451; in assay [2] it was -0.0425; in assay [3], -0.0309; in assay [4] it was -0.0348; in assay [5] it was -0.0241; in [6], -0.0477. For the same compound, the Bliss excess is 0.0059 in [7], -0.0669 in assay [8], -0.0091 in assay [9] and -0.0418 in [10]. In assay [11], the “combination Emax” value stood at 0.189.

With `CCc1c2c(nc3ccc(O)cc13)-c1cc3c(c(=O)n1C2)COC(=O)[C@]3(O)CC` [SN-38] + O=C(c1cc(Cc2n[nH]c(=O)c3ccccc23)ccc1F)N1CCN(C(=O)C2CC2)CC1 [Olaparib] (first compound max 0.3 µM, 7x7, partner max 10 µM), the Bliss excess in assay [12] is 0.099; in [1] it was 0.065; in assay [13], 0.0654; in assay [14] it was 0.0685; in assay [2], 0.111; in [5], 0.0247. Moreover, the Bliss excess was determined as 0.036 in [6]; 0.0503 in [7]; 0.0696 in [8]; 0.0505 in [15]; 0.0423 in [16]; 0.0257 in [17]. The Bliss excess in [9] was 0.0419; in assay [18] it was 0.0053; in [19], 0.0324; in assay [20] it was -0.0243.

Values taken from the supplement of paper PMC11061612.
